We go through 4 compounds from patent US8722849B2, “Polypeptides” (Novo Nordisk A/S, priority 2011, dated 2014).

Where two headings read alike, the source gives them in different places. Starred links: 1 amine or outer side, 2 acyl side, 3 side chain; linkers in the order of their positions; H or OH if unused. Positions of bridges follow the written chain, without caps; N, C: chain ends. Residues, ends and D or L forms follow the SMILES beside them. *: point of attachment. C20 diacid = O=C(O)CCCCCCCCCCCCCCCCCCC(=O)*; γGlu = O=C(O)[C@H](CCC(=O)[*:2])N[*:1]

Broadly, the EC50 is the concentration that produces a half-maximal response. As a reminder, the solubility is the concentration that dissolves in the medium under given conditions.

In data set [1] the target is T1, human calcitonin receptor (Homo sapiens, UniProt P30988).
T1 construct: expressed in transfected cells; host or cells: BHK570
T1 sequence (P30988 25-474): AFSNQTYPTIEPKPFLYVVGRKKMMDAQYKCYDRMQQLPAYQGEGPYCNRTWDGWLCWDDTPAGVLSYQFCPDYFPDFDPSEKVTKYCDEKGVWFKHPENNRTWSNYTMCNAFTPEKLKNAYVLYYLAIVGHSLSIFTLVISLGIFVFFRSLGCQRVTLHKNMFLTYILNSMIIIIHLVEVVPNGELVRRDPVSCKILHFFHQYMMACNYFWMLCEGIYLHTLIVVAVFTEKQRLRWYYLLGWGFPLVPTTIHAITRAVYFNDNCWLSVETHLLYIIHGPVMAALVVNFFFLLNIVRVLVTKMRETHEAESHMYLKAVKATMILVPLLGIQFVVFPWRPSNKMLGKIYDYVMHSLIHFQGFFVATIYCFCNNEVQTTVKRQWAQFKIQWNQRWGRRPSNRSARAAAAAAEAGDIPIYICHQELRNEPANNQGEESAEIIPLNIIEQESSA
The data set is described as follows: Assay (II)a functional CRE-luciferase assay, human calcitonin receptor. Type of data set: cell-based.

The target of data set [2] is T2, human amylin receptor (amylin 3(a) receptor: human calcitonin receptor + RAMP-3) (Homo sapiens, UniProt O60896+P30988).
T2 construct: expressed in transfected cells; host or cells: BHK570
T2 sequence (P30988 25-474): T1 sequence (P30988 25-474)
T2 sequence (O60896 24-148 partner): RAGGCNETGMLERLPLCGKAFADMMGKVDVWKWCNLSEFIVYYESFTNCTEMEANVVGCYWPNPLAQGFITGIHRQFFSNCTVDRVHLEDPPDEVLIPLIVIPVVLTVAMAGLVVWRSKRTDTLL
The data set is described as follows: Assay (II)a functional CRE-luciferase assay, human amylin receptor. Format: cell-based.

The nature of data set [3]: Assay (III) ThT fibrillation assay for physical stability. Particulars: ThT fibrillation assay. Type of data set: physicochemical. In a few lines: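 Freshly prepared formulations, pH-adjusted, with 1 μM ThT; four or eight replicates incubated at 37 °C under 960 rpm orbital shaking. Fluorescence (ex 444/em 485 nm) read every 20 min; […]. Peptide concentration measured by RP-HPLC before and after the run.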

The nature of data set [4]: Assay (IV) determination of solubility. Format: physicochemical. The essentials: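 Stock ~500 nmol/ml in water; 1:1 with 100 mM buffer, pH 3.0–8.0 (glycylglycine ≤5.0, bistrispropane ≥6.0); 18 h RT; spin; HPLC quantitation of soluble polypeptide.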
[5] abbreviates: bistrispropane buffer, pH 6, pH 6.0, read-out: Solubility pH 6.0.
Where [6] appears, read: bistrispropane buffer, pH 6.5, pH 6.5, read-out: Solubility pH 6.5.
Where [7] appears, read: bistrispropane buffer, pH 7, pH 7.0, read-out: Solubility pH 7.0.
[8] abbreviates: bistrispropane buffer, pH 7.5, pH 7.5, read-out: Solubility pH 7.5.
The mark [9] stands for this setting: bistrispropane buffer, pH 8, pH 8.0, read-out: Solubility pH 8.0.
The mark [10] stands for this setting: glycylglycine buffer, pH 3, pH 3.0, read-out: Solubility pH 3.0.
Setting [11] is: glycylglycine buffer, pH 4, pH 4.0, read-out: Solubility pH 4.0.
Where [12] appears, read: glycylglycine buffer, pH 5, pH 5.0, read-out: Solubility pH 5.0.
Where [13] appears, read: Table 7, human calcitonin (CTa) receptor.
The mark [14] stands for this setting: Table 2, BHK amylin 3(a)-receptor/CRE-luc cells.
[15] abbreviates: bistrispropane buffer, pH 7, pH 7.0, 18 hours at room temperature, Table 3, read-out: Solubility pH 7.0.
The mark [16] stands for this setting: glycylglycine buffer, pH 4, pH 4.0, 18 hours at room temperature, Table 2, read-out: Solubility pH 4.0.

With `CC[C@H](C)[C@H](NC(=O)[C@@H]1CCCN1C(=O)CNC(=O)[C@H](Cc1ccccc1)NC(=O)[C@H](CC(N)=O)NC(=O)[C@H](CC(N)=O)NC(=O)[C@H](CO)NC(=O)[C@H](CO)NC(=O)[C@H](Cc1c[nH]cn1)NC(=O)[C@@H](NC(=O)[C@H](CC(C)C)NC(=O)[C@H](Cc1ccccc1)NC(=O)[C@H](CC(N)=O)NC(=O)[C@H](C)NC(=O)[C@H](CC(C)C)NC(=O)[C@H](CCCNC(=N)N)NC(=O)[C@H](CCC(N)=O)NC(=O)[C@@H](NC(=O)[C@H](C)NC(=O)[C@@H]1CSSC[C@H](NC(=O)[C@H](CCCNC(=N)N)NC(=O)CC[C@H](NC(=O)CCCCCCCCCCCCCCCCCCC(=O)O)C(=O)O)C(=O)N[C@@H](CC(N)=O)C(=O)N[C@@H]([C@@H](C)O)C(=O)N[C@@H](C)C(=O)N[C@@H]([C@@H](C)O)C(=O)N1)[C@@H](C)O)C(C)C)C(=O)N[C@@H](CC(C)C)C(=O)N1CCC[C@H]1C(=O)N1CCC[C@H]1C(=O)N[C@H](C(=O)N[C@@H](CC(N)=O)C(=O)N[C@H](C(=O)NCC(=O)N[C@@H](CO)C(=O)N[C@@H](CC(N)=O)C(=O)N[C@H](C(=O)N1CCC[C@H]1C(N)=O)[C@@H](C)O)C(C)C)[C@@H](C)O` [Example 97] ({C20 diacid-γGlu}-RCNTATCATQRLANFLVHSSNNFGPILPPTNVGSNTP-NH2; disulfide 2-7 (inferred); C-terminus assumed), the half-maximal effective concentration (EC50) came to 0.0385 nM in data set [1] (Table 11, read-out: CTa receptor human EC50) and 0.034 nM in data set [2] (Table 11). For the same compound, in data set [3], the “ThT pH 4.0 lag time (h)” value is 1.7 h. The solubility at 18 h in data set [4] (setting [5]), in data set [4] (setting [6]), in data set [4] (setting [7]), in data set [4] (setting [8]), in data set [4] (setting [9]) and in data set [4] (setting [10]) was greater than 200 µM in each case. Further, the solubility at 18 h in data set [4] (setting [11]) and in data set [4] (setting [12]) was greater than 200 µM each time.

Consider “{C20 diacid-γGlu}-SSGSSGCNTATCATQRLAEFLHHSSNNFGPILPPTNVGSNTY-NH2 (disulfide 7-12 (inferred)) [Example 39, N-alpha-[(S)-4-Carboxy-4-(19-carboxynonadecanoylamino)butyryl]-Ser-Ser-Gly-Ser-Ser-[Gly1,Glu14,His17]-pramlintide]”, for which the EC50 in data set [1] (setting [13]) is 0.432 nM; in data set [2] (Table 6, human amylin receptor), 0.253 nM. The “ThT pH 4.0 lag time (h)” value in data set [3] is 0 h. For the same compound, the solubility at 18 h in data set [4] (setting [5]) is 6 µM; in data set [4] (setting [6]) it was 4 µM; in data set [4] (setting [7]), 1 µM; in data set [4] (setting [8]), 25 µM; in data set [4] (setting [9]), 26 µM; in data set [4] (setting [10]), greater than 200 µM. The solubility at 18 h in data set [4] (setting [11]) worked out at 84 µM; in data set [4] (setting [12]) it was 52 µM.

`CC[C@H](C)[C@H](NC(=O)[C@@H]1CCCN1C(=O)CNC(=O)[C@H](Cc1ccccc1)NC(=O)[C@H](CC(N)=O)NC(=O)[C@H](CC(N)=O)NC(=O)[C@H](CO)NC(=O)[C@H](CO)NC(=O)[C@H](Cc1c[nH]cn1)NC(=O)[C@H](Cc1c[nH]cn1)NC(=O)[C@H](CC(C)C)NC(=O)[C@H](Cc1ccccc1)NC(=O)[C@H](CCC(=O)O)NC(=O)[C@H](C)NC(=O)[C@H](CC(C)C)NC(=O)[C@H](CCCNC(=N)N)NC(=O)[C@H](CCC(N)=O)NC(=O)[C@@H](NC(=O)[C@H](C)NC(=O)[C@@H]1CSSC[C@H](NC(=O)[C@H](CO)NC(=O)CC[C@H](NC(=O)CCCCCCCCCCCCCCCCCCC(=O)O)C(=O)O)C(=O)N[C@@H](CC(N)=O)C(=O)N[C@@H]([C@@H](C)O)C(=O)N[C@@H](C)C(=O)N[C@@H]([C@@H](C)O)C(=O)N1)[C@@H](C)O)C(=O)N[C@@H](CC(C)C)C(=O)N1CCC[C@H]1C(=O)N1CCC[C@H]1C(=O)N[C@H](C(=O)N[C@@H](CC(N)=O)C(=O)N[C@H](C(=O)NCC(=O)N[C@@H](CO)C(=O)N[C@@H](CC(N)=O)C(=O)N[C@H](C(=O)N1CCC[C@H]1C(N)=O)[C@@H](C)O)C(C)C)[C@@H](C)O` [Example 106, N-alpha-[(S)-4-Carboxy-4-(19-carboxynonadecanoylamino)butyryl]-[Ser1,Glu14,His17,Pro37]-pramlintide] ({C20 diacid-γGlu}-SCNTATCATQRLAEFLHHSSNNFGPILPPTNVGSNTP-NH2; disulfide 2-7 (inferred); C-terminus assumed): the figures for the 50% effective concentration (EC50) in data set [1] (setting [13]) and in data set [2] (setting [14]) were 0.0705 nM and 0.0625 nM, respectively. In addition, the “ThT pH 4.0 lag time (h)” value in data set [3] is 9.7 h. The solubility at 18 h in data set [4] (setting [5]), in data set [4] (setting [6]), in data set [4] (setting [15]), in data set [4] (setting [7]), in data set [4] (setting [8]) and in data set [4] (setting [9]) was greater than 200 µM in each case. Besides, the solubility at 18 h in data set [4] (setting [10]), in data set [4] (setting [16]), in data set [4] (setting [11]) and in data set [4] (setting [12]) was greater than 200 µM in each case.

For `CC[C@H](C)[C@H](NC(=O)[C@@H]1CCCN1C(=O)CNC(=O)[C@H](Cc1ccccc1)NC(=O)[C@H](CC(N)=O)NC(=O)[C@H](CC(N)=O)NC(=O)[C@H](CO)NC(=O)[C@H](CO)NC(=O)[C@H](Cc1c[nH]cn1)NC(=O)[C@H](Cc1c[nH]cn1)NC(=O)[C@H](CC(C)C)NC(=O)[C@H](Cc1ccccc1)NC(=O)[C@H](CCC(=O)O)NC(=O)[C@H](C)NC(=O)[C@H](CC(C)C)NC(=O)[C@H](CCCNC(=N)N)NC(=O)[C@H](CCC(N)=O)NC(=O)[C@@H](NC(=O)[C@H](C)NC(=O)[C@@H]1CSSC[C@H](NC(=O)[C@H](CCCCN)NC(=O)CNC(=O)CC[C@H](NC(=O)CCCCCCCCCCCCCCCCCCC(=O)O)C(=O)O)C(=O)N[C@@H](CC(N)=O)C(=O)N[C@@H]([C@@H](C)O)C(=O)N[C@@H](C)C(=O)N[C@@H]([C@@H](C)O)C(=O)N1)[C@@H](C)O)C(=O)N[C@@H](CC(C)C)C(=O)N1CCC[C@H]1C(=O)N1CCC[C@H]1C(=O)N[C@H](C(=O)N[C@@H](CC(N)=O)C(=O)N[C@H](C(=O)NCC(=O)N[C@@H](CO)C(=O)N[C@@H](Cc1c[nH]cn1)C(=O)N[C@H](C(=O)N[C@@H](Cc1ccc(O)cc1)C(N)=O)[C@@H](C)O)C(C)C)[C@@H](C)O` [Example 81, N-alpha-[(S)-4-Carboxy-4-(19-carboxynonadecanoylamino)butyryl]-Gly-[Glu14,His17,His35]-pramlintide] ({C20 diacid-γGlu}-GKCNTATCATQRLAEFLHHSSNNFGPILPPTNVGSHTY-NH2; disulfide 3-8 (inferred); C-terminus assumed), the half-maximal effective concentration (EC50) stood at 0.0705 nM in data set [1] (setting [13]) and 0.0955 nM in data set [2] (setting [14]). Besides, the “ThT pH 4.0 lag time (h)” value in data set [3] is listed as 24 h. Besides, the solubility at 18 h in data set [4] (setting [5]), in data set [4] (setting [6]), in data set [4] (setting [15]), in data set [4] (setting [7]), in data set [4] (setting [8]) and in data set [4] (setting [9]) was greater than 200 µM throughout. Moreover, the solubility at 18 h in data set [4] (setting [10]), in data set [4] (setting [16]), in data set [4] (setting [11]) and in data set [4] (setting [12]) was greater than 200 µM each time.
